Laboratory results published in article PMC8847695 (Frontiers in Chemistry, 2022).

Key:
Type in all cases: binding
Settings in all cases: 1 = hit, 0 = no hit
DOT1L (1-416) = target: T1, DOT1L (1-416) (Homo sapiens, UniProt Q8TEK3); assay: STD-NMR fragment screening, DOT1L
T1 construct: made in house; host or cells: E. coli BL21 (DE3) pLysS
Method: (§1) All fragments were stored at −20°C as solids in argon flushed glass bottles. For NMR screening, fragments were weighed and dissolved in DMSO-d6 to a stock concentration of 300 mM. Mother plates were prepared with a 100 mM concentration. From these plates, daughter plates were prepared with the fragments mixed in the plates to a concentration of 50 mM for each fragment. Daughter plates were opened a maximum of eight times. The plates were argon flushed and sealed with a HT121TS (HTA) and Foil Heat Seal (Biozym).
(§2) For long time measurements, like the protein ^1H NMR spectrum, the buffer exchange was performed twice to reduce residual buffer peaks. All experiments were performed on a Bruker Avance III HDX 700 instrument, equipped with a 5 mm Prodigy TCI cryo-probehead. For every protein, a standard ^1H NMR experiment with 1 k scans and water suppression through presaturation was performed. […] The on-resonance frequency, which was determined from the ^1H NMR spectra of the protein, was between 0.5 and 0.6 ppm; 40 ppm was used as the off-resonance frequency. For an interleaved acquisition of the on- and off-resonance, a pseudo-2D scheme was applied. The saturation was done by Gaussian pulses with a length of 50 ms and 60 dB of attenuation, with an interpulse delay of 1 ms leading to an excitation bandwidth of about 42 Hz. The screening was done with 16 scans of on- and off-resonance scans each, with a 3 s saturation time. The samples contained final concentrations of 20 µM protein, 10% (^V/V) DMSO-d6, and 1 mM of each of the two fragments. A ^1H-NMR experiment was performed for each compound to act as a reference spectrum in the STD experiments. All NMR experiments were carried out at 25°C.
(§3) Fifteen of these compounds contain the same halogen twice. No compound bears mixtures of different halogen atoms. Four proteins (AAK1, CAMK1G, IDO1, and DOT1L) were screened against this HEFLib using STD-NMR. A fragment was considered a hit if the peak intensity in the difference spectrum was three times higher than the local background noise. […] Chemical compatibility and peak complementarity were assured for these mixtures. Samples containing more than two fragments were avoided to minimize the possible target competition and to decrease the risk of fragment interactions. […] The ^1H reference NMR spectrum of the mixture is shown in red for comparison. […] As fragment mixtures can lead to competitive effects between their fragments, it is not advised to use the quantification of peak mixtures for hit ranking.

IDO1 (1-435) = target: T2, IDO1 (1-435) (Homo sapiens, UniProt P14902); assay: STD-NMR fragment screening, IDO1
T2 construct: His-tag of pET15b with TEV site (thrombin site replaced) (cleaved yes); made in house; host or cells: E. coli Rosetta 2 (DE3) pLysS
Method: as §1, §2, §3

CAMK1G (1-320) = target: T3, CAMK1G (1-320) (Homo sapiens, UniProt Q96NX5); assay: STD-NMR fragment screening, CAMK1G
T3 construct: made in house; host or cells: E. coli BL21 (DE3) pLysS
Method: as §1, §2, §3

AAK1 (121-471) = AAK1 (121-471) (Homo sapiens, UniProt Q2M2I8); assay: STD-NMR fragment screening, AAK1
Method: as §1, §2, §3

T2 sequence (P14902 whole entry, the tested form may be a part): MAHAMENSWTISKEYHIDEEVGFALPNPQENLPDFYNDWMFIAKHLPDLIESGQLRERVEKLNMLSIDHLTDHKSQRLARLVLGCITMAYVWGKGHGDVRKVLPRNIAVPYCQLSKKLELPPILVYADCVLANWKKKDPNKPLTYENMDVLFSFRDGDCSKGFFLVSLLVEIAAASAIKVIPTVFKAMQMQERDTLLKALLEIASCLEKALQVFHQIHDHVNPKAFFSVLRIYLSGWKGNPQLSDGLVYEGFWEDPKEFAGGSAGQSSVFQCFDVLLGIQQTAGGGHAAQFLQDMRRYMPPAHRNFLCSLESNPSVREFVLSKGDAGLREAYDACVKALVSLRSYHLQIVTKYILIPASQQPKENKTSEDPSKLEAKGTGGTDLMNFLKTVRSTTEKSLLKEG
T3 sequence (Q96NX5 1-320): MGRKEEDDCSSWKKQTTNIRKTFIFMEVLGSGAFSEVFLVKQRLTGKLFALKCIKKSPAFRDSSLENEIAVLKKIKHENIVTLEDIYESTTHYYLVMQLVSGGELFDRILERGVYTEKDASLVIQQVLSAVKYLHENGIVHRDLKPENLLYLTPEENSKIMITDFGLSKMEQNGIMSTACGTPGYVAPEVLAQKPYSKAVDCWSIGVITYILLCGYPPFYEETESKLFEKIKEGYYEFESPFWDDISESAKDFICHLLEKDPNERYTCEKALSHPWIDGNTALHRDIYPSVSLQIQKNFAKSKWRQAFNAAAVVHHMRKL
T1 sequence (Q8TEK3 1-416): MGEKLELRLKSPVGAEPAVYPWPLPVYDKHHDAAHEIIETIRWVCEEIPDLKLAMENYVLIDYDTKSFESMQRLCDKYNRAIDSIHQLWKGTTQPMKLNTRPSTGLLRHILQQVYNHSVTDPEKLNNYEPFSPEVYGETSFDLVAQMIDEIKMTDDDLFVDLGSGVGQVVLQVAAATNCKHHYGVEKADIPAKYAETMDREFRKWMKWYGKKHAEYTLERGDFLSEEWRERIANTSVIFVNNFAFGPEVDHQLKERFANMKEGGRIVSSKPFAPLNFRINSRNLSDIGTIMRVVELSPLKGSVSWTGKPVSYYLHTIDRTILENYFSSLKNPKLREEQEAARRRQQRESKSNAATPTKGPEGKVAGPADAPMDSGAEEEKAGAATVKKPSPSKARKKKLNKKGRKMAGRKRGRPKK
Sequence of AAK1 (121-471) (Q2M2I8 46-315 limits assumed): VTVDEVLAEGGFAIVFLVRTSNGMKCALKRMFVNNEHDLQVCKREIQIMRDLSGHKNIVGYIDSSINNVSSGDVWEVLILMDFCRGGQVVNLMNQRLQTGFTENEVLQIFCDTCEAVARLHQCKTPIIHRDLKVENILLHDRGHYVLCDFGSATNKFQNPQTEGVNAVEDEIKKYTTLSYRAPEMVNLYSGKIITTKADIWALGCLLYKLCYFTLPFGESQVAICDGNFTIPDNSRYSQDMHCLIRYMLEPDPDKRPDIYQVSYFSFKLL

Row | SMILES | DOT1L (STD-NMR hit flag) (DOT1L (1-416)) | IDO1 (STD-NMR hit flag) (IDO1 (1-435)) | CAMK1G (STD-NMR hit flag) (CAMK1G (1-320)) | AAK1 (STD-NMR hit flag) (AAK1 (121-471))
1 | O=C(O)c1nccc(Cl)c1Cl [Fragment B02290659] | 0 | 0 | 0 | 0
2 | CN(C)S(=O)(=O)n1nccc1Br [Fragment B02290660] | 1 | 0 | 0 | 1
3 | CC(=O)c1c[nH]c2ncnc(Cl)c12 [Fragment B02290661] | 0 | 1 | 1 | 1
4 | Oc1coc(O)c1Br [Fragment B02291100] | 0 | 0 | 0 | 0
5 | Cc1nc(N)nc(Cl)c1Cl [Fragment B02291102] | 0 | 1 | 1 | 1
6 | CCn1ncc(Br)c1C(N)=O [Fragment B02291150] | 0 | 0 | 1 | 1
7 | Cc1nn(CCN)cc1Cl [Fragment B02291152] | 0 | 0 | 0 | 0
8 | Oc1ccc(Cl)cc1/C=C/C12CN3CN(CN(C3)C1)C2 [Fragment B02291153] | 0 | 0 | 0 | 0
9 | O=C(O)c1nn(Cn2cccn2)cc1Cl [Fragment B02291154] | 0 | 0 | 0 | 0
10 | CCn1ncc(Br)c1CNC [Fragment B02291155] | 0 | 0 | 0 | 0
11 | Nc1nn(CC(=O)O)cc1Br [Fragment B02291156] | 0 | 0 | 0 | 0
12 | Brc1cccc2c1CNC2 [Fragment B02291212] | 0 | 0 | 0 | 0
13 | CS(=O)(=O)c1ccc(Cl)c(S(C)(=O)=O)c1 [Fragment B02291213] | 0 | 0 | 0 | 0
14 | Cn1nc(C(F)(F)F)c(CO)c1Cl [Fragment B02291214] | 0 | 0 | 0 | 0
15 | Cn1c2nc(Cl)nc-2c(O)n(C)c1=O [Fragment B02291216] | 0 | 1 | 1 | 1
16 | Nc1c(Cl)ccc2nonc12 [Fragment B02291217] | 0 | 0 | 0 | 1
17 | Cc1c(Cl)c(C(=O)O)nn1C [Fragment B02291218] | 0 | 0 | 0 | 0
18 | Nc1ncc(C(F)(F)F)cc1Cl [Fragment B02291219] | 0 | 0 | 1 | 1
19 | O=C(O)c1cc(Cl)c[nH]1 [Fragment B02291221] | 0 | 0 | 0 | 0
20 | NC(=O)c1cc2c(nc1Cl)CCC2 [Fragment B02291222] | 0 | 0 | 0 | 0
21 | CS(=O)(=O)c1ncc(Cl)c(C(=O)O)n1 [Fragment B02291223] | 0 | 0 | 0 | 0

Row | SMILES | DOT1L (STD-NMR hit flag) (DOT1L (1-416)) | IDO1 (STD-NMR hit flag) (IDO1 (1-435)) | CAMK1G (STD-NMR hit flag) (CAMK1G (1-320)) | AAK1 (STD-NMR hit flag) (AAK1 (121-471))
22 | Clc1ncccn1 [Fragment B02291224] | 0 | 0 | 0 | 0
23 | CCOC(Cn1cc(Cl)cn1)OCC [Fragment B02291225] | 0 | 1 | 0 | 0
24 | NC1CCSc2ccc(Cl)cc21 (centres unmarked) [Fragment B02291226] | 0 | 0 | 0 | 0
25 | Cc1ccc(C(N)=O)c(Cl)n1 [Fragment B02291227] | 0 | 0 | 0 | 1
26 | O=C(O)c1csc(Cl)n1 [Fragment B02291228] | 0 | 0 | 0 | 0
27 | Clc1cccc2nnnn12 [Fragment B02291229] | 0 | 0 | 0 | 0
28 | Nc1c(Cl)ncnc1NC1CC1 [Fragment B02291230] | 0 | 0 | 1 | 1
29 | Nc1ccc(Br)cn1 [Fragment B02291232] | 0 | 0 | 0 | 1
30 | OCc1c(Cl)nc2sccn12 [Fragment B02291233] | 0 | 0 | 0 | 1
31 | Cn1c(Cl)c(C#N)c(=O)n(C)c1=O [Fragment B02291234] | 1 | 1 | 1 | 1
32 | OCc1cc2c(cc1Cl)OCO2 [Fragment B02291235] | 0 | 0 | 1 | 0
33 | O=S(=O)(c1ccc(Cl)s1)N1CCNCC1 [Fragment B02291236] | 0 | 0 | 0 | 0
34 | CC(C)c1nsc(Cl)n1 [Fragment B02291237] | 0 | 0 | 0 | 0
35 | Nc1ncc(F)cc1I [Fragment B02291238] | 0 | 0 | 0 | 0
36 | O=C(O)c1ccnc(Cl)c1 [Fragment B02291239] | 0 | 0 | 0 | 0
37 | Clc1cnccn1 [Fragment B02291240] | 0 | 0 | 0 | 0
38 | Clc1ccc(CN2CCNCC2)s1 [Fragment B02291241] | 0 | 0 | 0 | 0
39 | NCc1cc(Cl)c2c(c1)OCCCO2 [Fragment B02291242] | 0 | 0 | 0 | 0
40 | Cc1nn(CC(=O)O)c(C)c1Cl [Fragment B02291243] | 0 | 1 | 1 | 0
41 | Nc1cc(Cl)cc([N+](=O)[O-])c1O [Fragment B02291244] | 0 | 0 | 0 | 0
